In patent publication US20200368312A1 (priority 2017, published 2020):
In brackets after ≈: the same amount, converted by molar mass. Like-named read-outs stand apart in the source and are kept apart here.

Experiments:
[1] = system: MRSA isolate ATCC BAA-1556; assay: MIC, CLSI-guided broth susceptibility testing (Example 10); format: cell-based, Staphylococcus aureus
Description: (§1) MIC Testing: Glycopeptide compounds were dissolved in 100% DMSO. In vitro activities were determined using CLSI-guided broth susceptibility testing to measure drug minimum inhibitory concentrations (MICs) of the compounds against the quality control strain ATCC 29213 (MSSA) and the MRSA isolate ATCC BAA-1556. Glycopeptides are defined as compounds of Formula (I), and their respective R^1, R^2, R^3 and R^4 groups. X is —O— for each compound in Table 2.

[2] = system: quality control strain ATCC 29213 (MSSA); assay: as above; format: cell-based, Staphylococcus aureus
Description: as §1

[3] = system: Staphylococcus aureus; assay: microbe, parasite or virus in culture; format: cell-based; conditions: for MIC: Staphylococcus aureus, read-out: MIC
[4] = system: Enterococci; format: cell-based
[5] = system: Streptococci; assay: Broth microdilution MIC, Streptococci (Example 11, Table 7); format: cell-based
[6] = system: S. epidermidis (CoNS); assay: Broth microdilution MIC, S. epidermidis (CoNS) (Table 7); format: cell-based
[7] = system: S. lugdenensis (CoNS); assay: Broth microdilution MIC, S. lugdenensis (CoNS) (Table 7); format: cell-based; conditions: S. lugdenensis (CoNS) MMX 8724
[8] = system: S. haemolyticus (CoNS); assay: Broth microdilution MIC, S. haemolyticus (CoNS) (Table 7); format: cell-based; conditions: S. haemolyticus (CoNS) MMX 529 ATCC 29970
[9] = system: S. hominis (CoNS); assay: Broth microdilution MIC, S. hominis (CoNS) (Table 7); format: cell-based; conditions: S. hominis (CoNS) MMX 667 ATCC 27844
[10] = system: C. perfringens; format: cell-based
[11] = system: P. micros; assay: Broth microdilution MIC, P. micros (Table 7); format: cell-based; conditions: P. micros MMX 3546
[12] = system: P. anaerobius; assay: Broth microdilution MIC, P. anaerobius (Table 7); format: cell-based; conditions: P. anaerobius MMX 1208 ATCC 27337
[13] = system: P. acnes; assay: Broth microdilution MIC, P. acnes (Table 7); format: cell-based

CNC(CC(C)C)C(=O)NC1C(=O)NC(CC(N)=O)C(=O)NC2C(=O)NC3C(=O)NC(C(=O)NC(C(=O)O)c4cc(O)cc(O)c4-c4cc3ccc4O)C(O)c3ccc(c(Cl)c3)Oc3cc2cc(c3OC2OC(CO)C(O)C(O)C2OC2CC(C)(NCc3ccc(-c4ccc(Cl)cc4)cc3)C(O)C(C)O2)Oc2ccc(cc2Cl)C1O (centres unmarked) [RV79]
MIC Values MRSA 1556 [1]: 0.016 µg/mL (≈ 0.0097 µM)
MIC Values MSSA 29213 [2]: 0.016 µg/mL (≈ 0.0097 µM)

CN[C@H](CC(C)C)C(=O)N[C@H]1C(=O)N[C@@H](CC(N)=O)C(=O)N[C@H]2C(=O)N[C@H]3C(=O)N[C@H](C(=O)N[C@H](C(=O)O)c4cc(O)cc(O)c4-c4cc3ccc4O)[C@H](O)c3ccc(c(Cl)c3)Oc3cc2cc(c3O[C@@H]2O[C@H](CO)[C@@H](O)[C@H](O)[C@H]2O[C@H]2C[C@](C)(N)[C@H](O)[C@H](C)O2)Oc2ccc(cc2Cl)[C@H]1O [Vancomycin]
RV40 activity as compared to Comparator [3]: 86 ×
MIC ([3]; ATCC 33591 / MRSA, S. aureus MMX 5717 ATCC 33591, MRSA): 1 µg/mL (≈ 0.69 µM)
MIC ([3]; ATCC BAA-1756 / MRSA, S. aureus MMX 2011 ATCC BAA-1756, MRSA): 1 µg/mL (≈ 0.69 µM)
MIC ([3]; MRSA, S. aureus MMX 2010, MRSA): 1 µg/mL (≈ 0.69 µM)
MIC ([3]; MRSA, S. aureus MMX 3982, MRSA): 0.5 µg/mL (≈ 0.345 µM)
MIC ([3]; MRSA, S. aureus MMX 5985, MRSA): 0.5 µg/mL (≈ 0.345 µM)
MIC ([3]; MRSA, S. aureus MMX 5999, MRSA): 0.5 µg/mL (≈ 0.345 µM)
MIC ([3]; MRSA, S. aureus MMX 7899, MRSA): 0.5 µg/mL (≈ 0.345 µM)
MIC ([3]; MRSA, S. aureus MMX 7900, MRSA): 0.5 µg/mL (≈ 0.345 µM)
MIC ([3]; MRSA, S. aureus MMX 7901, MRSA): 0.5 µg/mL (≈ 0.345 µM)
MIC ([3]; MRSA, S. aureus MMX 7902, MRSA): 1 µg/mL (≈ 0.69 µM)
MIC ([3]; MRSA, S. aureus MMX 7903, MRSA): 1 µg/mL (≈ 0.69 µM)
MIC ([3]; MSSA, S. aureus MMX 2490, MSSA): 1 µg/mL (≈ 0.69 µM)
MIC ([3]; MSSA, S. aureus MMX 7907, MSSA): 0.5 µg/mL (≈ 0.345 µM)
MIC ([3]; MSSA, S. aureus MMX 7908, MSSA): 1 µg/mL (≈ 0.69 µM)
MIC ([3]; S. aureus MMX 4665, hVISA): 4 µg/mL (≈ 2.76 µM)
MIC ([3]; S. aureus MMX 5989, Mu3, hVISA): 1 µg/mL (≈ 0.69 µM)
MIC ([3]; VISA, S. aureus MMX 1723, Mu50, VISA): 8 µg/mL (≈ 5.52 µM)
MIC ([3]; VISA, S. aureus MMX 2124, VISA, DaptoNS): 4 µg/mL (≈ 2.76 µM)
MIC ([3]; VISA, S. aureus MMX 4658, VISA): 4 µg/mL (≈ 2.76 µM)
MIC ([3]; VISA, S. aureus MMX 4660, VISA): 4 µg/mL (≈ 2.76 µM)
MIC ([4]; E. faecalis MMX 101 ATCC 29212, VSE): 2 µg/mL (≈ 1.38 µM)
MIC ([4]; E. faecalis MMX 1086, VanA VRE): > 64 µg/mL
MIC ([4]; E. faecalis MMX 4176): 1 µg/mL (≈ 0.69 µM)
MIC ([4]; E. faecium MMX 173, VanB VRE): > 64 µg/mL
MIC ([4]; E. faecium MMX 851, VanA VRE): > 64 µg/mL
MIC ([4]; E. faecium MMX 4204): 0.5 µg/mL (≈ 0.345 µM)
MIC ([5]; S. agalactiae MMX 427 ATCC 13813): 0.25 µg/mL (≈ 0.173 µM)
MIC ([5]; S. agalactiae MMX 4088): 0.25 µg/mL (≈ 0.173 µM)
MIC ([5]; S. agalactiae MMX 4115, erm^R): 0.25 µg/mL (≈ 0.173 µM)
MIC ([5]; S. anginosus (AGS) MMX 1201 ATCC 33397): 0.5 µg/mL (≈ 0.345 µM)
MIC ([5]; S. constellatus (AGS) MMX 5677): 0.25 µg/mL (≈ 0.173 µM)
MIC ([5]; S. dysgalactiae MMX 5121): 0.25 µg/mL (≈ 0.173 µM)
MIC ([5]; S. dysgalactiae MMX 5123): 0.5 µg/mL (≈ 0.345 µM)
MIC ([5]; S. dysgalactiae MMX 5124): 0.25 µg/mL (≈ 0.173 µM)
MIC ([5]; S. mitis (MGS) MMX 1205 ATCC 49456): 0.5 µg/mL (≈ 0.345 µM)
MIC ([5]; S. mitis (MGS) MMX 5798): 0.25 µg/mL (≈ 0.173 µM)
MIC ([5]; S. oralis (MGS) MMX 5821): 0.25 µg/mL (≈ 0.173 µM)
MIC ([5]; S. pneumoniae MMX 432, PRSP): 0.25 µg/mL (≈ 0.173 µM)
MIC ([5]; S. pneumoniae MMX 747): 0.12 µg/mL (≈ 0.0828 µM)
MIC ([5]; S. pneumoniae MMX 1195 ATCC 49619, PISP): 0.25 µg/mL (≈ 0.173 µM)
MIC ([5]; S. pyogenes MMX 404 ATCC 19615): 0.25 µg/mL (≈ 0.173 µM)
MIC ([5]; S. pyogenes MMX 946, ermR): 0.25 µg/mL (≈ 0.173 µM)
MIC ([5]; S. pyogenes MMX 8778): 0.25 µg/mL (≈ 0.173 µM)
MIC ([6]; S. epidermidis (CoNS) MMX 762, MRSE): 2 µg/mL (≈ 1.38 µM)
MIC ([6]; S. epidermidis (CoNS) MMX 5145, MRSE): 1 µg/mL (≈ 0.69 µM)
MIC [7]: 0.5 µg/mL (≈ 0.345 µM)
MIC [8]: 1 µg/mL (≈ 0.69 µM)
MIC [9]: 0.5 µg/mL (≈ 0.345 µM)
MIC [10]: 0.5 µg/mL (≈ 0.345 µM)
MIC [11]: 0.5 µg/mL (≈ 0.345 µM)
MIC [12]: 0.25 µg/mL (≈ 0.173 µM)
MIC ([13]; P. acnes MMX 7942 ATCC 6919): 0.25 µg/mL (≈ 0.173 µM)
MIC ([13]; P. acnes MMX 7946 ATCC 11827): 0.25 µg/mL (≈ 0.173 µM)
